Experiments:
[1] = tested on: OCI-Ly10 cells; experiment: Cell proliferation suppression test of single agents, OCI-Ly10 (Alamar Blue, 96 h); type: cell-based, Human; details: Homo sapiens, OCI-Ly10, single agent, read-out: Inhibitory Activity on cell proliferation IC50 OCI-Ly10
Method: Human lymphoma cell line OCI-Ly10 cells (obtained from University Health Network) were cultured in a 5% CO2 incubator using IMDM medium (Iscove's Modified Dulbecco's Medium, Thermo Fisher Scientific Inc.) containing 20% fetal bovine serum (GE Healthcare) and 1% penicillin streptomycin (NACALAI TESQUE, INC.).
(§1) The OCI-Ly10 or U2932 cells (20000 cells/well) were seeded into 96-well plates (cell plates), to which the test compound diluted with the medium was added at final concentrations of 0.009 nM to 30000 nM (a final DMSO concentration of 0.3%), and after 96 hours of culture, an Alamar Blue reagent (Thermo Fisher Scientific Inc.) was added. After 3 hours, the fluorescence of excitation wavelength 560 nm/fluorescence wavelength 590 nm was measured and IC50 values of inhibitory activity were determined by setting a compound-free and cell-free well as 100% and a compound-free and cell-containing well as 0%.

[2] = tested on: U2932 cells; experiment: Cell proliferation suppression test of single agents, U2932 (Alamar Blue, 96 h); type: cell-based, Human; details: Homo sapiens, U2932, single agent, read-out: Inhibitory Activity on cell proliferation IC50 U2932
Method: Human lymphoma cell line U2932 cells (obtained from DSMZ) were cultured in a 5% CO2 incubator using RPMI medium (Roswell Park Memorial Institute medium, Thermo Fisher Scientific Inc.) containing 10% fetal bovine serum (GE Healthcare) and 1% penicillin streptomycin (NACALAI TESQUE, INC.).
as §1

[3] = tested on: BTK-C481S-mutant OCI-Ly10 cells; experiment: Cell proliferation suppression test of single agents, BTK-C481S-mutant OCI-Ly10; type: cell-based, Human; details: Homo sapiens, OCI-Ly10; single agent; read-out: Inhibitory activity on cell proliferation OCI-Ly10 BTK-C481S IC50
Method: as §1
(§2) BTK-C481S-mutant OCI-Ly10 cells were produced by point mutation knock-in using the CRISPR-Cas9 system. Cas9 protein (Thermo Fisher Scientific Inc.), guide RNA prepared with GeneArt™ Precision gRNA Synthesis Kit (Thermo Fisher Scientific Inc.), and a single-stranded synthetic oligonucleotide to replace 481st cysteine residue of BTK with a serine residue were introduced into OCI-Ly10 cells by an electroporation method. The resulting modified OCI-Ly10 cells were cultured in the presence of ibrutinib, and the grown cells were used as BTK-C481S-mutant OCI-Ly10 cells. Transduction of the mutation was confirmed by genomic DNA and mRNA sequence analysis.
In the same manner as in Test Example 1, IC50 values for each inhibitor single agent were determined.

[4] = tested on: OCI-Ly10 cells; experiment: Dose-response study of BTK inhibitor in the presence of BCL-2 inhibitor, OCI-Ly10; type: cell-based; details: Homo sapiens, read-out: Inhibitory activity on cell proliferation OCI-Ly10 IC50
Method: as §1
(§3) Changes in IC50 values of the BTK inhibitor in the presence of the BCL-2 inhibitor at various concentrations were examined.

[5] = tested on: U2932 cells; experiment: Dose-response study of BTK inhibitor in the presence of BCL-2 inhibitor, U2932; type: cell-based; details: Homo sapiens, read-out: Inhibitory activity on cell proliferation U2932 IC50
Method: as §1, §3
From the result obtained for the BCL-2 inhibitor used as a single agent, BCL-2 inhibitor concentrations for three doses were selected for each cancer cell line.

[6] = tested on: BTK-C481S-mutant OCI-Ly10 cells; experiment: Dose-response study of BTK inhibitor in the presence of BCL-2 inhibitor, BTK-C481S-mutant OCI-Ly10; type: cell-based; details: Homo sapiens, read-out: Inhibitory activity on cell proliferation OCI-Ly10 BTK-C481S IC50
Method: as §2
BTK-C481S-mutant lymphoma cells were used to examine changes in IC50 values of the BTK inhibitor in the presence of various concentrations of BCL-2 inhibitor.
From the results obtained for the BCL-2 inhibitor used as a single agent, BCL-2 inhibitor concentrations for three doses were selected for BTK-C481-mutant OCI-Ly10 cells.

[7] = OCI-Ly10, in the presence of S-55746 10 nM
[8] = OCI-Ly10, in the presence of S-55746 30 nM
[9] = OCI-Ly10, in the presence of S-55746 100 nM
[10] = OCI-Ly10, in the presence of navitoclax 10 nM
[11] = OCI-Ly10, in the presence of navitoclax 30 nM
[12] = OCI-Ly10, in the presence of navitoclax 100 nM
[13] = OCI-Ly10, in the presence of obatoclax mesylate 50 nM
[14] = OCI-Ly10, in the presence of obatoclax mesylate 100 nM
[15] = OCI-Ly10, in the presence of obatoclax mesylate 200 nM
[16] = OCI-Ly10, in the presence of venetoclax 1 nM
[17] = OCI-Ly10, in the presence of venetoclax 3 nM
[18] = OCI-Ly10, in the presence of venetoclax 10 nM
[19] = OCI-Ly10, obatoclax mesylate 0 nM

## Cn1cc(Nc2nc(N)nc(-c3cccc(-n4ccc5cc(C6CC6)cc(F)c5c4=O)c3CO)n2)cn1 [Compound (II-A), 2-(3-{4-Amino-6-[(1-methyl-1H-pyrazol-4-yl)amino]-1,3,5-triazin-2-yl}-2-(hydroxymethyl)phenyl)-6-cyclopropyl-8-fluoroisoquinolin-1(2H)-one]
[1]
  IC50: 42 nM
[2]
  IC50: 34700 nM
[3]
  IC50: 150 nM
[4]; OCI-Ly10, S-55746 0 nM
  IC50: 33 nM
[4]; [7]
  IC50: 29 nM
[4]; [8]
  IC50: 25 nM
[4]; [9]
  IC50: 18 nM
[4]; [10]
  IC50: 51 nM
[4]; [11]
  IC50: 42 nM
[4]; [12]
  IC50: 26 nM
[4]; [13]
  IC50: 25 nM
[4]; [14]
  IC50: 28 nM
[4]; [15]
  IC50: 30 nM
[4]; [16]
  IC50: 38 nM
[4]; [17]
  IC50: 27 nM
[4]; [18]
  IC50: 19 nM
[4]; OCI-Ly10, navitoclax 0 nM
  IC50: 59 nM
[4]; [19]
  IC50: 38 nM
[4]; OCI-Ly10, venetoclax 0 nM
  IC50: 42 nM
[5]; U2932, S-55746 0 nM
  IC50: > 30000 nM
[5]; U2932, in the presence of S-55746 100 nM
  IC50: 5740 nM
[5]; U2932, in the presence of S-55746 300 nM
  IC50: 930 nM
[5]; U2932, in the presence of S-55746 1000 nM
  IC50: 100 nM
[5]; U2932, in the presence of navitoclax 30 nM
  IC50: 13400 nM
[5]; U2932, in the presence of navitoclax 100 nM
  IC50: 1360 nM
[5]; U2932, in the presence of navitoclax 300 nM
  IC50: 100 nM
[5]; U2932, in the presence of obatoclax mesylate 50 nM
  IC50: 28700 nM
[5]; U2932, in the presence of obatoclax mesylate 100 nM
  IC50: 25800 nM
[5]; U2932, in the presence of venetoclax 3 nM
  IC50: 8510 nM
[5]; U2932, in the presence of venetoclax 10 nM
  IC50: 2190 nM
[5]; U2932, in the presence of venetoclax 100 nM
  IC50: 160 nM
[5]; U2932, navitoclax 0 nM
  IC50: > 30000 nM
[5]; U2932, obatoclax mesylate 0 nM
  IC50: > 30000 nM
[5]; U2932, venetoclax 0 nM
  IC50: > 30000 nM
[6]; OCI-Ly10, S-55746 0 nM
  IC50: 150 nM
[6]; [7]
  IC50: 94 nM
[6]; [8]
  IC50: 69 nM
[6]; [9]
  IC50: 39 nM
[6]; [10]
  IC50: 260 nM
[6]; [11]
  IC50: 210 nM
[6]; [12]
  IC50: 110 nM
[6]; [13]
  IC50: 100 nM
[6]; [14]
  IC50: 95 nM
[6]; [15]
  IC50: 61 nM
[6]; [16]
  IC50: 110 nM
[6]; [17]
  IC50: 80 nM
[6]; [18]
  IC50: 53 nM
[6]; OCI-Ly10, navitoclax 0 nM
  IC50: 340 nM
[6]; [19]
  IC50: 300 nM
[6]; OCI-Ly10, venetoclax 0 nM
  IC50: 150 nM

From US20230100235A1, “ANTICANCER AGENT COMPOSITION” (CARNA BIOSCIENCES, INC., priority 2020, published 2023)
